# Measurements published in ChEMBL document CHEMBL1141332, “Cytotoxic metabolites from an Indonesian sponge Lendenfeldia sp” (J Nat Prod, 2007).
# Where “and” joins values, the source holds several entries; their conditions need not be identical. Equal values may be shown once.
# What was measured:
# Format in all cases: functional
# OVCAR-8 = assay: Cytotoxicity against human OVCAR8 cells
# RPMI-8226 = assay: Cytotoxicity against human RPMI8226 cells
# LOX IMVI = assay: Cytotoxicity against human LOX IMVI cells
# NCI-H322M = assay: Cytotoxicity against human NCI-H322M cells
# OVCAR-5 = assay: Cytotoxicity against human OVCAR5 cells
# HL-60 = assay: Cytotoxicity against human HL60 cells
# SF-539 = assay: Cytotoxicity against human SF539 cells
# MCF7 = assay: Cytotoxicity against human MCF7 cells
# NCI-H23 = assay: Cytotoxicity against human NCI-H23 cells
# SK-OV-3 = assay: Cytotoxicity against human SK-OV-3 cells
# UACC-257 = assay: Cytotoxicity against human UACC257 cells
# SK-MEL-2 = assay: Cytotoxicity against human SK-MEL-2 cells
# PC-3 = assay: Cytotoxicity against human PC3 cells
# SK-MEL-28 = assay: Cytotoxicity against human SK-MEL-28 cells
# BT-549 = assay: Cytotoxicity against human BT549 cells
# SF-268 = assay: Cytotoxicity against human SF268 cells
# HCT-15 = assay: Cytotoxicity against human HCT15 cells
# DU-145 = assay: Cytotoxicity against human DU145 cells
# HT-29 = assay: Cytotoxicity against human HT29 cells
# KM12 = assay: Cytotoxicity against human KM12 cells
# SNB-19 = assay: Cytotoxicity against human SNB19 cells
# UACC-62 = assay: Cytotoxicity against human UACC62 cells
# NCI-H226 = assay: Cytotoxicity against human NCI-H226 cells
# SN12C = assay: Cytotoxicity against human SN12C cells
# M14 = assay: Cytotoxicity against human M14 cells
# EKVX = assay: Cytotoxicity against human EKVX cells
# [1] = Cytotoxicity against human HS578T cells; details: Hs-578T
# MDA-MB-435 = assay: Cytotoxicity against human MDA-MB-435 cells
# ACHN = assay: Cytotoxicity against human ACHN cells
# SF-295 = assay: Cytotoxicity against human SF295 cells
# HCC 2998 = assay: Cytotoxicity against human HCC2998 cells
# NCI-H522 = assay: Cytotoxicity against human NCI-H522 cells
# NCI-H460 = assay: Cytotoxicity against human NCI-H460 cells
# 786-0 = assay: Cytotoxicity against human 786-0 cells
# U-251 = assay: Cytotoxicity against human U251cells
# SK-MEL-5 = assay: Cytotoxicity against human SK-MEL-5 cells
# MOLT-4 = assay: Cytotoxicity against human MOLT4 cells
# UO-31 = assay: Cytotoxicity against human UO31 cells
# Malme-3M = assay: Cytotoxicity against human MALME-3M cells
# A498 = assay: Cytotoxicity against human A498 cells
# HOP-62 = assay: Cytotoxicity against human HOP62 cells
# HCT-116 = assay: Cytotoxicity against human HCT116 cells
# SNB-75 = assay: Cytotoxicity against human SNB75 cells
# COLO 205 = assay: Cytotoxicity against human COLO205 cells
# T47D = assay: Cytotoxicity against human T47D cells
# [2] = read-out: Log LC50 (the source's name) (converted)
structure (smiles),measurement,setting,value
CC(=O)O[C@H]1C[C@H]2[C@@](C)(CC[C@H]3C(C)(C)CCC[C@@]32CO)[C@@H]2CC=C(C(C)=O)[C@H](C=O)[C@@]12C,GI50,OVCAR-8,263 nM
same,TGI,OVCAR-8; read-out: Log TGI (converted),692 nM
same,GI50,RPMI-8226,427 nM
same,CC50,RPMI-8226; [2],8130 nM
same,TGI,RPMI-8226; read-out: Log TGI (converted),1820 nM
same,GI50,LOX IMVI,234 nM
same,CC50,LOX IMVI; [2],1780 nM
same,TGI,LOX IMVI; read-out: Log TGI (converted),550 nM
same,GI50,NCI-H322M,1910 nM
same,CC50,NCI-H322M; [2],7590 nM
same,TGI,NCI-H322M; read-out: Log TGI (converted),3800 nM
same,GI50,OVCAR-5,832 nM
same,CC50,OVCAR-5; [2],4680 nM
same,TGI,OVCAR-5; read-out: Log TGI (converted),2090 nM
same,GI50,"HL-60; Homo sapiens, HL-60",170 nM
same,TGI,HL-60; read-out: Log TGI (converted),537 nM and 2630 nM
same,GI50,SF-539,195 nM
same,CC50,SF-539; [2],794 nM
same,TGI,SF-539; read-out: Log TGI (converted),389 nM
same,GI50,MCF7,776 nM
same,LC50,MCF7,25700 nM
same,TGI,MCF7; read-out: Log TGI (converted),3470 nM
same,GI50,NCI-H23,1410 nM
same,CC50,NCI-H23; [2],5500 nM
same,TGI,NCI-H23; read-out: Log TGI (converted),2750 nM
same,GI50,SK-OV-3,1200 nM
same,CC50,SK-OV-3; [2],6310 nM
same,TGI,SK-OV-3; read-out: Log TGI (converted),2750 nM
same,GI50,UACC-257,1950 nM
same,CC50,UACC-257; [2],9550 nM
same,TGI,UACC-257; read-out: Log TGI (converted),4370 nM
same,GI50,SK-MEL-2,1620 nM
same,CC50,SK-MEL-2; [2],8130 nM
same,TGI,SK-MEL-2; read-out: Log TGI (converted),3630 nM
same,GI50,PC-3,380 nM
same,LC50,PC-3,3800 nM
same,TGI,PC-3; read-out: Log TGI (converted),1350 nM
same,GI50,SK-MEL-28,251 nM
same,CC50,SK-MEL-28; [2],2290 nM
same,TGI,SK-MEL-28; read-out: Log TGI (converted),631 nM
same,GI50,BT-549,214 nM
same,LC50,BT-549,977 nM
same,TGI,BT-549; read-out: Log TGI (converted),457 nM
same,GI50,SF-268,447 nM
same,CC50,SF-268; [2],6170 nM
same,TGI,SF-268; read-out: Log TGI (converted),1860 nM
same,GI50,HCT-15,224 nM
same,CC50,HCT-15; [2],1230 nM
same,TGI,HCT-15; read-out: Log TGI (converted),490 nM
same,GI50,DU-145,457 nM
same,LC50,DU-145,3980 nM
same,TGI,DU-145; read-out: Log TGI (converted),1580 nM
same,GI50,HT-29,324 nM
same,CC50,HT-29; [2],4270 nM
same,TGI,HT-29; read-out: Log TGI (converted),1150 nM
same,GI50,KM12,501 nM
same,CC50,KM12; [2],4570 nM
same,TGI,KM12; read-out: Log TGI (converted),1700 nM
same,GI50,SNB-19,1120 nM
same,CC50,SNB-19; [2],5750 nM
same,TGI,SNB-19; read-out: Log TGI (converted),2570 nM
same,GI50,UACC-62,1480 nM
same,CC50,UACC-62; [2],5370 nM
same,TGI,UACC-62; read-out: Log TGI (converted),2820 nM
same,GI50,NCI-H226,1380 nM
same,CC50,NCI-H226; [2],> 100000 nM
same,TGI,NCI-H226; read-out: Log TGI (converted),2820 nM
same,GI50,SN12C,1200 nM
same,LC50,SN12C,5010 nM
same,TGI,SN12C; read-out: Log TGI (converted),2450 nM
same,GI50,M14,1000 nM
same,CC50,M14; [2],4900 nM
same,TGI,M14; read-out: Log TGI (converted),2240 nM
same,GI50,EKVX,832 nM
same,CC50,EKVX; [2],4900 nM
same,TGI,EKVX; read-out: Log TGI (converted),2140 nM
same,GI50,[1],240 nM
same,LC50,[1],3240 nM
same,TGI,[1]; read-out: Log TGI (converted),646 nM
same,GI50,MDA-MB-435,525 nM
same,LC50,MDA-MB-435,4270 nM
same,TGI,MDA-MB-435; read-out: Log TGI (converted),1740 nM
same,GI50,ACHN,282 nM
same,LC50,ACHN,3240 nM
same,TGI,ACHN; read-out: Log TGI (converted),1070 nM
same,GI50,SF-295,479 nM
same,CC50,SF-295; [2],4270 nM
same,TGI,SF-295; read-out: Log TGI (converted),1740 nM
same,GI50,HCC 2998,1000 nM
same,CC50,HCC 2998; [2],4790 nM
same,TGI,HCC 2998; read-out: Log TGI (converted),2190 nM
same,GI50,NCI-H522,1050 nM
same,CC50,NCI-H522; [2],6460 nM
same,TGI,NCI-H522; read-out: Log TGI (converted),2570 nM
same,GI50,NCI-H460,759 nM
same,CC50,NCI-H460; [2],6030 nM
same,TGI,NCI-H460; read-out: Log TGI (converted),2290 nM
same,GI50,786-0,224 nM
same,CC50,786-0; [2],1170 nM
same,TGI,786-0; read-out: Log TGI (converted),490 nM
same,GI50,U-251,347 nM
same,CC50,U-251; [2],3470 nM
same,TGI,U-251; read-out: Log TGI (converted),1200 nM
same,GI50,SK-MEL-5,501 nM
same,CC50,SK-MEL-5; [2],4070 nM
same,TGI,SK-MEL-5; read-out: Log TGI (converted),1700 nM
same,GI50,MOLT-4,195 nM
same,CC50,MOLT-4; [2],1950 nM
same,TGI,MOLT-4; read-out: Log TGI (converted),513 nM
same,GI50,UO-31,417 nM
same,LC50,UO-31,3980 nM
same,TGI,UO-31; read-out: Log TGI (converted),1450 nM
same,GI50,Malme-3M,1290 nM
same,CC50,Malme-3M; [2],5890 nM
same,TGI,Malme-3M; read-out: Log TGI (converted),2750 nM
same,GI50,A498,1480 nM
same,LC50,A498,5890 nM
same,TGI,A498; read-out: Log TGI (converted),2950 nM
same,GI50,HOP-62,295 nM
same,CC50,HOP-62; [2],2450 nM
same,TGI,HOP-62; read-out: Log TGI (converted),724 nM
same,GI50,HCT-116,186 nM
same,CC50,HCT-116; [2],676 nM
same,TGI,HCT-116; read-out: Log TGI (converted),355 nM
same,GI50,SNB-75,355 nM
same,CC50,SNB-75; [2],3470 nM
same,TGI,SNB-75; read-out: Log TGI (converted),1120 nM
same,GI50,COLO 205,295 nM
same,CC50,COLO 205; [2],4370 nM
same,TGI,COLO 205; read-out: Log TGI (converted),1320 nM
same,GI50,T47D,1020 nM
same,LC50,T47D,8910 nM
same,TGI,T47D; read-out: Log TGI (converted),3020 nM
